Assays:
[1] = biological target: human TLR7 (Homo sapiens (Human), UniProt Q9NYK1); assay: TLR7 inhibition reporter assay (HEK-Blue SEAP reporter, gardiquimod stimulation); type: cell-based; conditions: HEK-Blue cells overexpressing human TLR7, gardiquimod 7.5 μM
Experimental: HEK-Blue™-cells (Invivogen) overexpressing human TLR7, TLR8 or TLR9 receptors were used for screening inhibitors of these receptors using an inducible SEAP (secreted embryonic alkaline phosphatase) reporter gene under the control of the IFN-β minimal promoter fused to five NF-κB and AP-1-binding sites. Briefly, cells are seeded into Greiner 384 well plates (15000 cells per well for TLR7, 20,000 for TLR8 and 25,000 for TLR9) and then treated with test compounds in DMSO to yield a final dose response concentration range of 0.05 nM-50 μM. After a 30 minute compound pre-treatment at room temperature, the cells are then stimulated with a TLR7 ligand (gardiquimod at a final concentration of 7.5 μM), TLR8 ligand (R848 at a final concentration of 15.9 μM) or TLR9 ligand (ODN2006 at a final concentration of 5 nM) to activate NF-κB and AP-1 which induce the production of SEAP. After a 22 hour incubation at 37° C., 5% CO2, SEAP levels are determined with the addition of HEK-Blue™ Detection reagent (Invivogen), a cell culture medium that allows for detection of SEAP, according to manufacturer's specifications.

[2] = biological target: human TLR9 (Homo sapiens (Human), UniProt Q9NR96); assay: TLR9 inhibition reporter assay (HEK-Blue SEAP reporter, ODN2006 stimulation); conditions: read-out: TLR9 IC50; HEK-Blue cells overexpressing human TLR9, ODN2006 5 nM, SEAP reporter;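 note: SEAP reporter under IFN-β minimal promoter with five NF-κB and AP-1 sites, 22 h incubation, compounds 0.05 nM–50 µM, inhibition relative to agonist plus DMSO versus known inhibitor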
[3] = biological target: human TLR8 (Homo sapiens (Human), UniProt Q9NR97); assay: TLR8 inhibition reporter assay (HEK-Blue SEAP reporter, R848 stimulation); conditions: read-out: TLR8 IC50; HEK-Blue cells overexpressing human TLR8, R848 15.9 μM, SEAP reporter;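 note: SEAP driven by IFN-β minimal promoter with NF-κB and AP-1 sites, 22 h incubation, compounds 0.05 nM–50 µM, inhibition scaled between agonist plus DMSO and reference inhibitor wells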
Chain of human TLR8 (Q9NR97 27-1041): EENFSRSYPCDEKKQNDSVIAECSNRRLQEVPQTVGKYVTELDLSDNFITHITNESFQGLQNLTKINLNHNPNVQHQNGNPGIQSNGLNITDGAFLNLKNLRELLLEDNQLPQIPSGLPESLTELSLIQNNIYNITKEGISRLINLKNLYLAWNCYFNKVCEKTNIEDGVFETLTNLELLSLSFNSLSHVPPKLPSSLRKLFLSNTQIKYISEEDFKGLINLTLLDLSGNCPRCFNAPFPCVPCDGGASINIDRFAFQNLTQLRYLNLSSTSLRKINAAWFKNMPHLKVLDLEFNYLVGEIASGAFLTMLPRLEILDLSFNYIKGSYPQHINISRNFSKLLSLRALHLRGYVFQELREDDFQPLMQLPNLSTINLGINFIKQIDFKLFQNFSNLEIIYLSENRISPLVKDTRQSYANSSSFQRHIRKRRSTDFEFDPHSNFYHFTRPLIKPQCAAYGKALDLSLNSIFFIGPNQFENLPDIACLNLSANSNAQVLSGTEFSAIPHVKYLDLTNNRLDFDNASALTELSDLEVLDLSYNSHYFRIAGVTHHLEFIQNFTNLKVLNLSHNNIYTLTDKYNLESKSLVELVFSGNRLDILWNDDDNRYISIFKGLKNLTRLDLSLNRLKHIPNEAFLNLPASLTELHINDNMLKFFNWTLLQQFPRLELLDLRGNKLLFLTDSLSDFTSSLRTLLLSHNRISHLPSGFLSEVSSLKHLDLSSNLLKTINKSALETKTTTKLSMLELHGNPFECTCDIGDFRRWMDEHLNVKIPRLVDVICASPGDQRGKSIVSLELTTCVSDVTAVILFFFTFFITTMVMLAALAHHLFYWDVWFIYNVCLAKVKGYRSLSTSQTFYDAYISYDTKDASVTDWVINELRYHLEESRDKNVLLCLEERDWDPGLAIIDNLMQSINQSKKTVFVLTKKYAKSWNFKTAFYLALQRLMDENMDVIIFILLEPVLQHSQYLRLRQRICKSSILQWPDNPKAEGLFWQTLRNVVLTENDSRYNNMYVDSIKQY

Chain of human TLR9 (Q9NR96 26-1032): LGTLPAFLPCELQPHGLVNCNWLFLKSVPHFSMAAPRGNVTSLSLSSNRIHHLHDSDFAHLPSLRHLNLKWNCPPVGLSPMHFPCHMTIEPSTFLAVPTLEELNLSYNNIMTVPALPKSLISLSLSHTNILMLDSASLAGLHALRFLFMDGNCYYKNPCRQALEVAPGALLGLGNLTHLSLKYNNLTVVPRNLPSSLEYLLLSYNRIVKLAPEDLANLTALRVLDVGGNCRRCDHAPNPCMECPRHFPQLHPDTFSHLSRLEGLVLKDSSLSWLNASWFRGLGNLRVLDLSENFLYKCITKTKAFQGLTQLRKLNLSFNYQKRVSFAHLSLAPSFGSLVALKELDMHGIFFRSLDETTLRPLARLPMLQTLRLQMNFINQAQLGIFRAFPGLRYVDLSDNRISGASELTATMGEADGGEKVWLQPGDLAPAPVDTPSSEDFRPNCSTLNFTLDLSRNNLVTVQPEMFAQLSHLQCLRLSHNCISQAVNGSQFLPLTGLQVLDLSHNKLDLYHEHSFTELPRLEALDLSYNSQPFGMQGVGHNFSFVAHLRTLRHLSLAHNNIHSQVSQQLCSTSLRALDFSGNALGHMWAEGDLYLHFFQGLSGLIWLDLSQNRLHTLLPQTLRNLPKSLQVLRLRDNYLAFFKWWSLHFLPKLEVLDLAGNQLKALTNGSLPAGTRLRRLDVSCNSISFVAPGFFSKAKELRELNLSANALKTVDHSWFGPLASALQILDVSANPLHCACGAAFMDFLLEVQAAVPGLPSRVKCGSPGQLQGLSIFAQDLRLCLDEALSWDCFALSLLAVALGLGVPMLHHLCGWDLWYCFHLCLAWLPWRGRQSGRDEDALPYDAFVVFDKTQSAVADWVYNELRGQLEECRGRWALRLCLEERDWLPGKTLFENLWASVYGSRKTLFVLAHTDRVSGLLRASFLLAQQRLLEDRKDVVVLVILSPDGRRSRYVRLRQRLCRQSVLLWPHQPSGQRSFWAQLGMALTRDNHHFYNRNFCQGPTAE
Chain of human TLR7 (Q9NYK1 27-1049): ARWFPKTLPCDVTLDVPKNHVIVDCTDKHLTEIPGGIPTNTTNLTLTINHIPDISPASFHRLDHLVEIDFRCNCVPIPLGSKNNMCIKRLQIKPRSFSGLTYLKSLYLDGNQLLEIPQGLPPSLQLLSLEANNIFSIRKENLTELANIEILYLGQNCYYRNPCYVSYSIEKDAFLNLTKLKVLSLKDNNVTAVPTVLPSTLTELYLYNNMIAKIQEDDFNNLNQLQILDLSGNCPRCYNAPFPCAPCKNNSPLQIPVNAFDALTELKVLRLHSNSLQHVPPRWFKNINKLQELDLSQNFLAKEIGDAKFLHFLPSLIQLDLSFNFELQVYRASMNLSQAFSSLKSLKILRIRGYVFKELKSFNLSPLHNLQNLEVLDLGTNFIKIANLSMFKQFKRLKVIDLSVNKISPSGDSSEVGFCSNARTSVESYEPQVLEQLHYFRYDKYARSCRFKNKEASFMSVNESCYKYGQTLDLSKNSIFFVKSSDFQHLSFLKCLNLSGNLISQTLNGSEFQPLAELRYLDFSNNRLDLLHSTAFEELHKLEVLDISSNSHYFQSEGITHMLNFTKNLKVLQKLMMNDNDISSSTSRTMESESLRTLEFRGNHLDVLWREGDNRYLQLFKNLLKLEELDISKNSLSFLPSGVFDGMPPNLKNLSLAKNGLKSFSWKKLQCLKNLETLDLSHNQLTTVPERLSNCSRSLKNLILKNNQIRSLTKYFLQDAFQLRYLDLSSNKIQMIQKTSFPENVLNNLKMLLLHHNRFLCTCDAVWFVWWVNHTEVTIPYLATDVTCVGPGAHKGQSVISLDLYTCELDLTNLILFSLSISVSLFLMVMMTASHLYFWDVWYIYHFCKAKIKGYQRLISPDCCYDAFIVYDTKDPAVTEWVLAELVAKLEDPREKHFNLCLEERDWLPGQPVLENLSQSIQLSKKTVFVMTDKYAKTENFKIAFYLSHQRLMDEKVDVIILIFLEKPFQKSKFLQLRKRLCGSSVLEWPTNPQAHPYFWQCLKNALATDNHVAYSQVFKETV

IC50 [1]	IC50 [2]	IC50 [3]	SMILES
382 nM	19900 nM	–	CCc1c(-c2ccc(OC)c(OC)c2)[nH]c2ccc(C(=O)NCCc3ccncc3)cc12 [Example 50, 2-(3,4-dimethoxyphenyl)-3-ethyl-N-(2-(pyridin-4-yl)ethyl)-1H-indole-5-carboxamide]
947 nM	–	964 nM	Cc1cc(-c2[nH]c3ccc(C(C)C(=O)NCCC(C)(C)O)cc3c2C(C)C)ccn1 (centres unmarked) [Example 132, N-(3-hydroxy-3-methylbutyl)-2-(3-isopropyl-2-(2-methylpyridin-4-yl)-1H-indol-5-yl)propanamide]
–	2940 nM	0.7 nM	CCCN1CCC(N(C(=O)c2ccc3[nH]c(-c4cn(C)c(=O)c(Cl)c4C)c(C(C)C)c3c2)C2CC2)CC1 [Example 221, 2-(5-chloro-1,4-dimethyl-6-oxo-1,6-dihydropyridin-3-yl)-N-cyclopropyl-3-isopropyl-N-(1-propylpiperidin-4-yl)-1H-indole-5-carboxamide]
194 nM	–	110 nM	CCc1c(-c2ccc(OC)c(OC)c2)[nH]c2ccc(C(=O)N3CCN(c4cnccn4)CC3)cc12 [Example 58, (2-(3,4-dimethoxyphenyl)-3-ethyl-1H-indol-5-yl)(4-(pyrazin-2-yl)piperazin-1-yl)methanone]

More lines, now with the values behind:

SMILES	IC50 [1]	IC50 [2]	IC50 [3]
CCc1c(-c2ccc(OC)c(OC)c2)[nH]c2ccc(C(=O)N[C@H]3CC[C@H](N)CC3)cc12 [Example 47, N-((1r,4r)-4-aminocyclohexyl)-2-(3,4-dimethoxyphenyl)-3-ethyl-1H-indole-5-carboxamide]	150 nM	2790 nM	–
CCc1c(-c2ccc(OC)c(OC)c2)[nH]c2ccc(C(=O)N3CCC(N(C)C)CC3)cc12 [Example 31, (2-(3,4-dimethoxyphenyl)-3-ethyl-1H-indol-5-yl)(4-(dimethylamino)piperidin-1-yl)methanone]	296 nM	4930 nM	–
CCc1c(-c2ccc(OC)c(OC)c2)[nH]c2ccc(C(=O)NCCc3cccnc3)cc12 [Example 51, 2-(3,4-dimethoxyphenyl)-3-ethyl-N-(2-(pyridin-3-yl)ethyl)-1H-indole-5-carboxamide]	705 nM	> 50000 nM	–
CCc1c(-c2ccc(OC)c(OC)c2)[nH]c2ccc(C(=O)NCCN3CCCCC3)cc12 [Example 49, 2-(3,4-dimethoxyphenyl)-3-ethyl-N-(2-(piperidin-1-yl)ethyl)-1H-indole-5-carboxamide]	144 nM	2410 nM	–
Cc1c(-c2[nH]c3ccc(C(=O)N4CCN(C)CC4)cc3c2C(C)C)cn(C)c(=O)c1Cl [Example 220, 3-chloro-5-(3-isopropyl-5-(4-methylpiperazine-1-carbonyl)-1H-indol-2-yl)-1,4-dimethylpyridin-2(1H)-one]	141 nM	–	2.1 nM
CCc1c(-c2ccc(OC)c(OC)c2)[nH]c2ccc(C(=O)N3CCN(c4ccccn4)CC3)cc12 [Example 59, (2-(3,4-dimethoxyphenyl)-3-ethyl-1H-indol-5-yl)(4-(pyridin-2-yl)piperazin-1-yl)methanone]	1140 nM	> 50000 nM	–
CCc1c(-c2ccc(OC)c(OC)c2)[nH]c2ccc(C(=O)N3CCN(C4CCN(C)CC4)CC3)cc12 [Example 36, (2-(3,4-dimethoxyphenyl)-3-ethyl-1H-indol-5-yl)(4-(1-methylpiperidin-4-yl)piperazin-1-yl)methanone]	138 nM	1930 nM	–
CCc1c(-c2ccc(OC)c(OC)c2)[nH]c2ccc(C(=O)NC3CCC(N(C)C)CC3)cc12 (centres unmarked) [Example 19, 2-(3,4-dimethoxyphenyl)-N-(4-(dimethylamino)cyclohexyl)-3-ethyl-1H-indole-5-carboxamide]	104 nM	1390 nM	–
Cc1cc(-c2[nH]c3ccc(C(C)(C)C(=O)N4CCCC(CCN)C4)cc3c2C(C)C)ccn1 (centres unmarked) [Example 154, 1-(3-(2-aminoethyl)piperidin-1-yl)-2-(3-isopropyl-2-(2-methylpyridin-4-yl)-1H-indol-5-yl)-2-methylpropan-1-one]	58 nM	–	256 nM
